Activity calls are given as the source filed them. The rule behind the calls is not given here.
How the values were obtained:
[1] = system: PC-3; test: Cytotoxicity against human PC3 cells assessed as reduction in cell viability incubated for 48 hrs by MTT assay; assay type: functional, cell-based; conditions: PC-3, 48 h
[2] = system: NHDF; test: Cytotoxicity against human HDF cells assessed as reduction in cell viability incubated for 48 hrs by MTT assay; assay type: cell-based
[3] = system: A-375; test: Cytotoxicity against human A375 cells assessed as reduction in cell viability incubated for 48 hrs by MTT assay; assay type: functional, cell-based; conditions: A-375, 48 h
[4] = system: LNCaP; test: Cytotoxicity against human LNCAP cells assessed as reduction in cell viability incubated for 48 hrs by MTT assay; assay type: functional, cell-based
[5] = system: LNCaP; test: Induction of cell death in human LNCAP cells assessed as chromatin fragmentation by DAPI staining based inverted fluorescence microscopy; assay type: functional
[6] = system: PC-3; test: Induction of cell death in human PC3 cells assessed as morphological changes by DAPI staining based inverted fluorescence microscopy; assay type: functional
[7] = system: LNCaP; test: Inhibition of epithelial-mesenchymal transition in human LNCAP cells assessed as decrease in vimentin mRNA expression level by qRT-PCR analysis; assay type: functional, cell-based
[8] = system: LNCaP; test: Inhibition of cell migration at human LNCAP cells incubated for 24 hrs by phase contrast microscopy based wound healing assay; assay type: functional
[9] = system: LNCaP; test: Induction of cell death in human LNCAP cells assessed as morphological changes by DAPI staining based inverted fluorescence microscopy; assay type: functional
[10] = system: A-375; test: Induction of cell death in human A375 cells assessed as chromatin fragmentation by DAPI staining based inverted fluorescence microscopy; assay type: functional
[11] = system: LNCaP; test: Induction of apoptosis in human LNCAP cells assessed as upregulation of Bax mRNA expression by qRT-PCR analysis; assay type: functional, cell-based
[12] = system: A-375; test: Induction of cell death in human A375 cells assessed as morphological changes by DAPI staining based inverted fluorescence microscopy; assay type: functional
[13] = system: LNCaP; test: Inhibition of epithelial-mesenchymal transition in human LNCAP cells assessed as increase in E-cadherin mRNA expression by qRT-PCR analysis; assay type: functional, cell-based
[14] = system: PC-3; test: Induction of cell death in human PC3 cells assessed as chromatin fragmentation by DAPI staining based inverted fluorescence microscopy; assay type: functional
[15] = system: LNCaP; test: Induction of apoptosis in human LNCAP cells assessed as downregulation of Bcl2 mRNA expression by qRT-PCR analysis; assay type: functional, cell-based

Compound	IC50 [1]	IC50 [2]	IC50 [3]	IC50 [4]	other results
CNC1=C([N+](=O)[O-])C(c2ccccc2)Nc2ncnn21 (configuration not stated)	45 µM	> 100 µM	> 100 µM	> 100 µM	
CNC1=C([N+](=O)[O-])C(c2ccc(C(F)(F)F)cc2)Nc2ncnn21 (configuration not stated)	> 100 µM	> 100 µM	63.4 µM	> 100 µM	
CNC1=C([N+](=O)[O-])C(c2ccccc2Cl)Nc2ncnn21 (configuration not stated)	63.3 µM	> 100 µM	> 100 µM	> 100 µM	
COc1cc([C@@H]2c3cc4c(cc3[C@@H](O[C@@H]3O[C@@H]5CO[C@@H](C)O[C@H]5[C@H](O)[C@H]3O)[C@H]3COC(=O)[C@H]23)OCO4)cc(OC)c1O [ETOPOSIDE]	30 µM	> 100 µM	24.5 µM	31.2 µM	
CNC1=C([N+](=O)[O-])C(c2ccc(Cl)cc2)Nc2ncnn21 (configuration not stated)	> 100 µM	> 100 µM	> 100 µM	> 100 µM	
CNC1=C([N+](=O)[O-])C(c2ccc([N+](=O)[O-])cc2)Nc2ncnn21 (configuration not stated)	65 µM	> 100 µM	31.7 µM	28.6 µM	Activity [5]: Active; Activity [6]: Active; inhibition [7]: Active; inhibition [8]: Active; Activity [9]: Active; Activity [10]: Active; Activity [11]: Active; Activity [12]: Active; inhibition [13]: Active; Activity [14]: Active; Activity [15]: Active
CNc1c([N+](=O)[O-])c(-c2ccncc2)nc2ncnn12	> 100 µM	> 100 µM	> 100 µM	31.7 µM	
CNC1=C([N+](=O)[O-])C(c2cccc(F)c2)Nc2ncnn21 (configuration not stated)	55.6 µM	> 100 µM	61.3 µM	> 100 µM	
CNC1=C([N+](=O)[O-])C(c2ccc(Br)cc2)Nc2ncnn21 (configuration not stated)	> 100 µM	> 100 µM	> 100 µM	> 100 µM	

Reference: ChEMBL document CHEMBL4627341, “Synthesis and evaluation of anti-tumor activity of novel triazolo[1,5-a] pyrimidine on cancer cells by induction of cellular apoptosis and inhibition of epithelial-to-mesenchymal transition process” (Bioorg Med Chem Lett, 2020)
